Reference: patent US20060069132A1, “Azolecarboxamide herbicides” (priority 2004, published 2006)

Key:
[1] = test system: small flower umbrella sedge; experiment: Test B flooded paddy test; format: in vivo, Cyperus difformis; settings: 1000 g ai/ha, scale 0 to 100 (0 no effect, 100 complete control)
Method in brief: (§1)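 Postemergence plants were sprayed with formulated test chemicals at 2 to 18 cm height (1- to 4-leaf stage); paddy species were grown to the 2-leaf stage. After 13 to 15 days in a greenhouse, injury was rated visually against untreated controls on a 0–100 scale (0 = no effect, 100 = complete control).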

[2] = test system: blackgrass; experiment: Test B postemergence herbicide test; format: in vivo, Alopecurus myosuroides; settings: postemergence
Method in brief: as §1

[3] = test system: velvetleaf; experiment: Test B pre-/postemergence herbicide test; format: in vivo, Abutilon theophrasti; settings: for Velvetleaf plant response rating: postemergence
Method in brief: (§2)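 Herbicidal effect was judged by eye on a 0–100 scale after plants stood 13 to 15 days in the greenhouse following pre- or postemergence treatment with surfactant-containing formulations.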

[4] = test system: rice; experiment: Test B flooded paddy test; format: in vivo, Oryza sativa; settings: 1000 g ai/ha, scale 0 to 100 (0 no effect, 100 complete control)
Method in brief: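 Treated at 2-leaf (paddy) or 1–4-leaf, 2–18 cm (postemergence); greenhouse 13–15 d; visual score vs control, 0 none to 100 complete control; dash = not tested.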

[5] = test system: rice; experiment: Test C flooded paddy test; format: in vivo, Oryza sativa
Method in brief: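 Plants were grown to the 1- to 4-leaf stage (2–18 cm) and then treated postemergence, or grown to the 2-leaf stage for the flooded paddy test. They were held in a greenhouse for 12 to 14 days and then scored by eye against controls, where 0 is no effect and 100 is complete control.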

[6] = test system: barnyardgrass; experiment: Test C flooded paddy test; format: in vivo, Echinochloa crus-galli
Method in brief: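 Ratings (0 = no effect, 100 = complete control) come from visual comparison with untreated plants after 12 to 14 days in the greenhouse. Treatment was postemergence at the 1- to 4-leaf stage (2–18 cm), or at the 2-leaf stage for the flooded paddy barnyardgrass.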

[7] = test system: Surinam grass; experiment: Test B pre-/postemergence herbicide test; format: in vivo, Urochloa decumbens; settings: for Surinam Grass plant response rating: postemergence
Method in brief: as §2

[8] = test system: smallflower umbrella sedge; experiment: Test C flooded paddy test; format: in vivo, Cyperus difformis
[9] = test system: barnyardgrass; experiment: Test B pre-/postemergence herbicide test; format: in vivo, Echinochloa crus-galli; settings: for Barnyardgrass plant response rating: postemergence
Method in brief: (§3)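 Seeds were planted and treated preemergence with compounds formulated in a non-phytotoxic solvent mixture containing surfactant, while plants at the 1- to 4-leaf stage (2 to 18 cm) received postemergence sprays. Flooded paddy plants were grown to the 2-leaf stage. After 13 to 15 days in a greenhouse, injury was visually rated 0–100 against untreated controls.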

[10] = test system: giant foxtail; experiment: Test B pre-/postemergence herbicide test; format: in vivo, Setaria faberi; settings: for Foxtail, Giant plant response rating: postemergence
Method in brief: as §2

[11] = test system: morningglory; experiment: Test B pre-/postemergence herbicide test; format: in vivo, Ipomoea coccinea; settings: for Morningglory plant response rating: postemergence
Method in brief: as §3

[12] = test system: large crabgrass; experiment: Test B pre-/postemergence herbicide test; format: in vivo, Digitaria sanguinalis; settings: for Crabgrass, Large plant response rating: postemergence
Method in brief: as §2

[13] = test system: rice; experiment: Test B pre-/postemergence herbicide test; format: in vivo, Oryza sativa; settings: 0 = no effect, 100 = complete control, preemergence
Method in brief: as §2

[14] = test system: ducksalad; experiment: Test C flooded paddy test; format: in vivo, Heteranthera limosa
[15] = test system: lambsquarters; experiment: Test B pre-/postemergence herbicide test; format: in vivo, Chenopodium album; settings: for Lambsquarters plant response rating: postemergence
Method in brief: as §2

[16] = test system: wheat; experiment: Test B postemergence herbicide test; format: in vivo, Triticum aestivum; parameters: key to Wheat plant response rating: 0 = no effect, 100 = complete control; settings: postemergence
Method in brief: (§4)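 Each value is a visual 0–100 response rating taken against controls 13 to 15 days after treatment in the greenhouse. Plants received formulated chemical postemergence at the 1- to 4-leaf stage or, in flooded paddy, at the 2-leaf stage.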

[17] = test system: pigweed; experiment: Test B pre-/postemergence herbicide test; format: in vivo, Amaranthus retroflexus; settings: for Pigweed plant response rating: postemergence
Method in brief: as §2

[18] = test system: corn; experiment: Test B pre-/postemergence herbicide test; format: in vivo, Zea mays; settings: for Corn plant response rating: postemergence
Method in brief: as §2

[19] = test system: barnyardgrass; experiment: Test B flooded paddy test; format: in vivo, Echinochloa crus-galli; settings: 1000 g ai/ha, scale 0 to 100 (0 no effect, 100 complete control)
Method in brief: as §1

[20] = test system: cocklebur; experiment: Test B pre-/postemergence herbicide test; format: in vivo, Xanthium strumarium; settings: for Cocklebur plant response rating: postemergence
Method in brief: as §3

[21] = test system: ducksalad; experiment: Test B flooded paddy test; format: in vivo, Heteranthera limosa; settings: 1000 g ai/ha, scale 0 to 100 (0 no effect, 100 complete control)
Method in brief: as §1

[22] = test system: wild oat; experiment: Test B postemergence herbicide test; format: in vivo, Avena fatua; settings: postemergence
Method in brief: as §4

[23] = 125 g ai/ha, visual rating, scale 0 (no effect) to 100 (complete control)
[24] = 500 g ai/ha, scale 0 to 100, 0 is no effect, 100 is complete control
[25] = 125 g ai/ha, 0 = no effect, 100 = complete control, preemergence
[26] = 500 g ai/ha, visual rating, 0 = no effect, 100 = complete control, preemergence
[27] = 125 g ai/ha, scale 0 to 100 (0 no effect, 100 complete control)
[28] = 250 g ai/ha, scale of 0 to 100, 0 is no effect, 100 is complete control
[29] = 500 g ai/ha, visual rating after 12 to 14 days, scale 0 to 100 (0 no effect, 100 complete control)

CCn1nc(C(C)(C)C)c(F)c1C(=O)Nc1cccc(C(=O)N(C)C)n1 [Compound 274]
40: Lambsquarters plant response rating [15, 23] | Pigweed plant response rating [17, 23] | Oat, Wild plant response rating [22, 24]
10: Velvetleaf plant response rating [3, 23] | Velvetleaf plant response rating [3, 24] | Barnyardgrass plant response rating [6, 27] | Barnyardgrass plant response rating [9, 24] | Foxtail, Giant plant response rating (0 to 100 scale) [10, 25] | Plant response rating, Morningglory [11, 26] | Crabgrass, Large plant response rating (0 to 100 scale) [12, 25] | Cocklebur plant response rating [20, 24]
100: Plant response rating, Barnyardgrass [9, 26] | Plant response rating, Crabgrass, Large [12, 26] | Plant response rating, Lambsquarters [15, 26] | Plant response rating, Pigweed [17, 26]
80: Sedge, Umbrella plant response rating [1] | Plant response rating, Surinam Grass [7, 26] | Plant response rating, Rice ([13]; 500 g ai/ha, visual rating) | Plant response rating, Corn [18, 26]
50: Surinam Grass plant response rating (0 to 100 scale) [7, 25] | Sedge, Umbrella plant response rating [8, 27] | Foxtail, Giant plant response rating [10, 24]
0: Rice plant response rating ([5]; 62 g ai/ha, scale 0 to 100) | Rice plant response rating [5, 27] | Barnyardgrass plant response rating ([6]; 62 g ai/ha, scale 0 to 100 (0 no effect, 100 complete control)) | Sedge, Umbrella plant response rating ([8]; 62 g ai/ha, scale 0 to 100) | Barnyardgrass plant response rating [9, 23] | Morningglory plant response rating (0 to 100 scale) [11, 25] | Morningglory plant response rating [11, 23] | Crabgrass, Large plant response rating [12, 23] | Crabgrass, Large plant response rating [12, 24] | Ducksalad plant response rating ([14]; 62 g ai/ha, scale 0 to 100) | Ducksalad plant response rating [14, 27] | Ducksalad plant response rating [14, 28] | Corn plant response rating (0 to 100 scale) [18, 25] | Corn plant response rating [18, 23] | Cocklebur plant response rating (0 to 100 scale) [20, 25] | Plant response rating, Cocklebur [20, 26] | Cocklebur plant response rating [20, 23]
60: Rice plant response rating [4] | Plant response rating, Barnyardgrass [6, 29] | Barnyardgrass plant response rating (0 to 100 scale) [9, 25] | Morningglory plant response rating [11, 24] | Pigweed plant response rating [17, 24]
20: Velvetleaf plant response rating (0 to 100 scale) [3, 25] | Surinam Grass plant response rating [7, 23] | Foxtail, Giant plant response rating [10, 23] | Plant response rating, Ducksalad [14, 29] | Wheat plant response rating [16, 23] | Wheat plant response rating [16, 24] | Corn plant response rating [18, 24] | Oat, Wild plant response rating [22, 23]
30: Blackgrass plant response rating [2, 23] | Blackgrass plant response rating [2, 24] | Barnyardgrass plant response rating [6, 28] | Surinam Grass plant response rating [7, 24] | Rice plant response rating (0 to 100 scale) ([13]; 125 g ai/ha) | Pigweed plant response rating (0 to 100 scale) [17, 25]
70: Plant response rating, Velvetleaf [3, 26] | Sedge, Umbrella plant response rating [8, 28] | Lambsquarters plant response rating (0 to 100 scale) [15, 25] | Lambsquarters plant response rating [15, 24] | Barnyardgrass plant response rating [19] | Ducksalad plant response rating [21]
90: Plant response rating, Foxtail, Giant [10, 26]
45: Plant response rating, Rice [5, 29]
15: Rice plant response rating [5, 28]
75: Plant response rating, Sedge, Umbrella [8, 29]
